Reference: ChEMBL document CHEMBL1201862, “PubChem BioAssay data set” (2004)
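Briefly, cells in 96-well plates were exposed to five compound concentrations for 48 h, and endpoints were estimated by linear interpolation. At the GI50, growth is halved.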 Calls of active or inactive are those of the source. Cut-off read from the data, not from the text of the source: active = GI50 up to about 1.1 µM and inactive = higher.

Columns and labels:
Assay in all cases: NCI-60 cell line screen, 48 h
[1] = system: A498
[2] = system: COLO 205
[3] = system: HCT-116
[4] = system: HOP-92
[5] = system: KM12
[6] = system: MCF7
[7] = system: NCI/ADR-RES
[8] = system: RPMI-8226
[9] = system: RXF 393
[10] = system: SK-MEL-28
[11] = system: SK-MEL-5
[12] = system: SW-620
[13] = system: XF498
[14] = system: ACHN
[15] = system: CAKI-1
[16] = system: LXFL 529
[17] = system: M14
[18] = system: RXF 631
[19] = system: SR
[20] = system: TK-10

Measured: GI50

Cc1ccc(S(=O)(=O)Oc2cc(-c3ccccc3)nc3ccccc23)cc1
active: [2] 0.544 µM | [6] 0.604 µM
inactive: [1] 2.36 µM | [3] 2.36 µM | [4] 3.83 µM | [5] 1.2 µM | [7] 1.95 µM | [8] 2.61 µM | [9] 2.95 µM | [10] 11.3 µM | [11] 1.42 µM | [12] 1.22 µM | [13] 3.91 µM

COc1ccc(/C(Cl)=C(\C=O)c2ccc(Cl)cc2)cc1
inactive: [1] 30.1 µM | [14] 3.27 µM | [15] 9.51 µM | [3] 4.02 µM | [16] 9.23 µM | [17] 14.1 µM | [9] 10.7 µM | [18] 3.64 µM | [11] 11.2 µM | [19] 2.69 µM | [12] 4.12 µM | [20] 6.15 µM

Cc1cn([C@@H]2C[C@H](CO)[C@@H](O)C2)c(=O)[nH]c1=O
inactive: [14] > 100 µM | [2] > 100 µM | [3] > 100 µM | [4] > 100 µM | [5] > 100 µM | [16] > 100 µM | [17] > 100 µM | [18] > 100 µM | [10] > 100 µM | [12] > 100 µM | [13] > 100 µM
